Experimental data taken from ChEMBL document CHEMBL1142346, “Quantitative structural-activity relationship (QSAR) study for fungicidal activities of thiazoline derivatives against rice blast” (2008).

Legend:
Pyricularia grisea [1] = assay: Antifungal activity against Magnaporthe grisea infected rice plant assessed as logarithm of fungal control value at 100 ppm after 5 days; format: functional
Pyricularia grisea [2] = assay: Antifungal activity against Magnaporthe grisea infected rice plant after 5 days relative to control; format: functional; set-up: concentration or dose not given beside the values

SMILES | Activity (Pyricularia grisea [1]) | Activity (Pyricularia grisea [2])
CCCCc1ccc(/N=c2/scc(CC(=O)Nc3ccc(OC)cc3)n2C)cc1 | 1.98 | –
COc1ccc(NC(=O)Cc2cs/c(=N/c3ccc(Cl)cc3)n2C)cc1 | 1.97 | –
CCOc1ccc(/N=c2/scc(CC(=O)Nc3ccc(OC)cc3)n2C)cc1 | 1.98 | –
CN(C(=O)Cc1cs/c(=N\c2ccc(Br)cc2)n1C)c1ccccc1 | – | 0%
CN(C(=O)Cc1cs/c(=N\c2cc(Cl)cc(Cl)c2)n1C)c1ccccc1 | – | 8%
COc1ccc(NC(=O)Cc2cs/c(=N/c3ccc([N+](=O)[O-])cc3)n2C)cc1 | 2 | –
CCc1ccc(NC(=O)Cc2cs/c(=N/c3ccc(Oc4ccccc4)cc3)n2C)cc1 | 1.98 | –
CN(C(=O)Cc1cs/c(=N\c2ccc(F)cc2F)n1C)c1ccccc1 | – | 0%
CCCCCCc1ccc(/N=c2/scc(CC(=O)Nc3ccc(CC)cc3)n2C)cc1 | 2 | –
COc1ccc(/N=c2\scc(CC(=O)Nc3ccc(Cl)cc3)n2C)cc1 | – | 83%
CCc1ccc(NC(=O)Cc2cs/c(=N\c3ccc(C#N)cc3)n2CCO)cc1 | – | 86%
CCc1ccc(NC(=O)Cc2cs/c(=N\c3ccc(C#N)cc3)n2C)cc1 | – | 93%
COc1ccc(NC(=O)Cc2cs/c(=N\c3ccc([N+](=O)[O-])cc3)n2CCO)cc1 | – | 20%
COc1ccc(NC(=O)Cc2cs/c(=N\c3ccc([N+](=O)[O-])cc3)n2C)cc1 | – | 99%
Cn1c(CC(=O)Nc2ccc(Br)cc2)cs/c1=N\c1ccc(Oc2ccccc2)cc1 | – | 98%
O=C(Cc1cs/c(=N\c2ccc(Oc3ccccc3)cc2)n1C1CC1)Nc1ccc(Br)cc1 | – | 16%
CN(C(=O)Cc1cs/c(=N\c2ccc(F)cc2)n1C)c1ccccc1 | – | 0%
CCc1ccc(NC(=O)Cc2cs/c(=N\c3ccc(OC)cc3)n2CCO)cc1 | – | 75%
COc1ccc(/N=c2/scc(CC(=O)Nc3ccc(OC(F)(F)F)cc3)n2C)cc1 | 1.4 | –
CN(C(=O)Cc1cs/c(=N\c2ccc(Oc3ccccc3)cc2)n1C)c1ccccc1 | – | 0%
Cn1c(CC(=O)Nc2ccc(Oc3ccccc3)cc2)cs/c1=N/c1ccc(Br)cc1 | 1.23 | –
CCCCOc1ccc(NC(=O)Cc2cs/c(=N/c3ccc(C(F)(F)F)cc3)n2C)cc1 | 1 | –
Cn1c(CC(=O)Nc2ccc(Oc3ccccc3)cc2)cs/c1=N/c1ccc(Oc2ccccc2)cc1 | 1.4 | –

SMILES | Activity (Pyricularia grisea [1]) | Activity (Pyricularia grisea [2])
CCCCc1ccc(/N=c2/scc(CC(=O)Nc3ccc([N+](=O)[O-])cc3)n2C)cc1 | 1.11 | –
CCc1ccc(NC(=O)Cc2cs/c(=N/c3ccc(-c4ccccc4)cc3)n2C)cc1 | 1.99 | –
CCc1ccc(NC(=O)Cc2cs/c(=N/c3ccc(CC#N)cc3)n2C)cc1 | 2 | –
CCc1ccc(NC(=O)Cc2cs/c(=N/c3ccc(C(C)=O)cc3)n2C)cc1 | 2 | –
Cc1ccc(NC(=O)Cc2cs/c(=N/c3ccc(Br)cc3)n2C)cc1 | 1.94 | –
Cn1c(CC(=O)Nc2ccc([N+](=O)[O-])cc2)cs/c1=N/c1ccc(F)cc1 | 0.9 | –
CCCCCOc1ccc(/N=c2/scc(CC(=O)Nc3ccc(CC)cc3)n2C)cc1 | 1.96 | –
CCc1ccc(NC(=O)Cc2cs/c(=N/c3ccc(I)cc3)n2C)cc1 | 1.97 | –
CC(C)c1ccc(NC(=O)Cc2cs/c(=N/c3ccc(C(F)(F)F)cc3)n2C)cc1 | 1.8 | –
CN(C(=O)Cc1cs/c(=N\c2ccc(C#N)cc2)n1C)c1ccccc1 | – | 25%
COc1ccc(NC(=O)Cc2cs/c(=N/c3ccc(SC)cc3)n2C)cc1 | 1.96 | –
CCc1ccc(NC(=O)Cc2cs/c(=N/c3ccc(Cl)cc3)n2C)cc1 | 2 | –
CCc1ccc(NC(=O)Cc2cs/c(=N/c3ccc(C#N)cc3)n2C)cc1 | 1.92 | –
CCc1ccc(NC(=O)Cc2cs/c(=N\c3ccc(OC)cc3)n2C)cc1 | 1.99 | 98%
Cn1c(CC(=O)Nc2ccc(OC(F)(F)F)cc2)cs/c1=N/c1ccc(Cl)cc1 | 1.52 | –
CN(C(=O)Cc1cs/c(=N\c2ccc(C(F)(F)F)cc2)n1C)c1ccccc1 | – | 0%
COc1ccc(/N=c2\scc(CC(=O)Nc3ccc(Cl)cc3)n2CCO)cc1 | – | 10%
CN(C(=O)Cc1cs/c(=N\c2cccc(F)c2)n1C)c1ccccc1 | – | 0%
COc1ccc(NC(=O)Cc2cs/c(=N/c3ccc(OC(F)(F)F)cc3)n2C)cc1 | 1.99 | –
CCCCc1ccc(/N=c2/scc(CC(=O)Nc3ccc(CC)cc3)n2C)cc1 | 1.99 | –
CCc1ccc(NC(=O)Cc2cs/c(=N/c3ccc(OC(F)(F)F)cc3)n2C)cc1 (stereo in doubt; 5) | 1.99 | –
CCc1ccc(NC(=O)Cc2cs/c(=N/c3ccc(OC(F)(F)F)cc3)n2C)cc1 (stereo in doubt; 8) | 1.93 | –
